# Several values for one entry are separate records, joined by “and”; a condition that tells them apart may be missing. Identical values can stand only once.
# How the values were obtained:
# Format in all cases: cell-based
# hNCI-H716 [1] = assay: hNCI-H716 GLP-1 secretion; settings: GLP-1 secretion; for activation at 2 µM / activation at 20 µM / Primary SP hNCI (% Stim.): single point; for activation at 2 µM / activation at 20 µM: read-out: Primary SP hNCI (% Stim.); for EC50: concentration response curve, read-out: Primary CRC (EC50, μM) hNCI
# Excerpt: Selected compounds of this invention were screened for K-Ras Wnt synthetic lethal, anti-angiogenic activity, Wnt pathway modulatory activity, insulin and GLP-1 secretion modulatory activity, GPR119 receptor agonist activity, mGlu2R antagonist activity, CGRP receptor antagonist activity, Apelin receptor agonist activity and hexokinase 2 inhibitory activity using the PD^2 and TD^2 Screening Panel (Eli Lilly & Company). See Lee, et al. (2011) J. Biomol. Screen. 16:588-602.
# (§1) In light of the above results, additional compounds (Table 7) were prepared and phenotypic assays were carried out using hNCI-H716 and mSTC-1 cell lines to monitor GLP-1 secretion (single point (SP) and concentration response curves (CRC)) (Table 8), as well as a secondary assay with pituitary cells (Table 9).
# mSTC-1 [2] = assay: mSTC-1 GLP-1 secretion; settings: for activation at 2 µM / activation at 20 µM: single point, read-out: Primary SP mSTC (% Stim.); for EC50: concentration response curve, read-out: Primary CRC (EC50, μM) mSTC
# Description: as §1
# hNCI-H716 [3] = assay: hNCI basal LDH secretion; settings: read-out: Primary CRC (EC50, μM) hNCI Basal
# Description: as §1
# mSTC-1 [4] = assay: mSTC LDH secretion; settings: read-out: Primary CRC (EC50, μM) mSTC LDH
# Description: as §1
Compound,activation at 2 µM (hNCI-H716 [1]; 2 μM) [%],activation at 20 µM (hNCI-H716 [1]; 20 μM) [%],activation at 2 µM (mSTC-1 [2]) [%],activation at 20 µM (mSTC-1 [2]) [%],also measured
Cc1ccc(C2CC(C)(C)c3c2[nH]c2ccc(C)cc32)cc1 (stereo not shown) [Compound 19d],0,0,10.3,53.6,–
COC(=O)[C@@H]1CC[C@H](O)[C@@]2(C)c3ccccc3N(C)[C@@H]12 [Compound 26],1.4,-1.3,-2.4,-3.1,–
CC1(C)C(=O)C[C@]23CCCC[C@]12N(Cc1ccccc1)c1ccccc13 [Compound 25],0.6,-1.1,78.5,51.1,EC50 (hNCI-H716 [1]): > 40 µM; EC50 (hNCI-H716 [3]): > 40 µM; EC50 (mSTC-1 [4]): > 40 µM; EC50 (mSTC-1 [2]): 0.2 µM
Cn1c2c(c3ccccc31)C1(CCCC1)[C@@H]1C=C[C@H]2C1 [Compound 11i],0,-6,–,–,–
CC1C=CC(C)C(c2ccccc2)c2c1n(C)c1ccccc21 (stereo not shown) [Compound 11n],10.3,-3.5,–,–,–
Cn1c2c(c3ccccc31)[C@@H](c1cccs1)[C@@H]1C=C[C@H]2C1 [Compound 11e],-0.5,-2.4,–,–,–
Cn1c2c(c3ccccc31)C1(CCCC1)CC2c1ccc2ccccc2c1 (stereo not shown) [Compound 19x],-3.1,-3.3,–,–,–
Cn1c2c(c3ccccc31)C1(CCC1)[C@@H]1C=C[C@H]2C1 [Compound 11h],-2.2,-3.3,–,–,–
O=C1C2CCC1[C@@]1(CCO)c3ccccc3N[C@@H]21 (stereo partly shown) [Compound 21],4.3,3.4,-1,-2.4,–
Cc1ccc(C2CC3(CCCCC3)c3c2[nH]c2ccc(C)cc32)cc1 (stereo not shown) [Compound 19g],0,0,34.9,124,–
Cn1c2c(c3ccccc31)C1(CCCCC1)[C@@H]1C=C[C@H]2CC1 [Compound 11k],3.1,-1.9,–,–,–
CC1(C)C(=O)C[C@]23CCCC[C@]12Nc1ccccc13 [Compound 20],-0.2,-1.1,-4.1,8.2,–
Cn1c2c(c3ccccc31)C1(CCCC1)CC2c1ccccc1 (stereo not shown) [Compound 19u],-0.8,-3.8,–,–,–
CC1=CCc2c(c3ccccc3n2C)C(c2ccccc2)C1 (stereo not shown) [Compound 11m],-2.2,-1,–,–,–
Cn1c2c(c3ccccc31)[C@@H](c1ccc(C(F)(F)F)cc1)[C@@H]1C=C[C@H]2C1 (racemic) [Compound 11c],–,–,–,–,Primary SP hNCI (% Stim.) (hNCI-H716 [1]; 2 μM): 1%; Primary SP hNCI (% Stim.) (hNCI-H716 [1]; 20 μM): 0.7%
COc1ccc2[nH]c3c(c2c1)C(C)(C)C1C=CC3C1 (stereo not shown) [Compound 11q],–,–,–,–,Primary SP hNCI (% Stim.) (hNCI-H716 [1]; 2 μM): 1.3%; Primary SP hNCI (% Stim.) (hNCI-H716 [1]; 20 μM): 5.9%
CC1(C)c2c([nH]c3ccc(C(F)(F)F)cc23)C2C=CC1C2 (stereo not shown) [Compound 11y],-0.4,55.9,–,–,EC50 (mSTC-1 [2]): 10.4 µM and 5.88 µM
CC1(C)c2c([nH]c3ccccc23)C2C=CC1C2 (stereo not shown) [Compound 11p],–,–,–,–,Primary SP hNCI (% Stim.) (hNCI-H716 [1]; 2 μM): −0.5%; Primary SP hNCI (% Stim.) (hNCI-H716 [1]; 20 μM): 23.3%
O=C1C2CCC1[C@@]1(CCO)c3ccccc3N(Cc3ccccc3)[C@@H]21 (stereo partly shown) [Compound 24],1,4.6,-3.3,47.9,EC50 (hNCI-H716 [1]): > 40 µM; EC50 (hNCI-H716 [3]): > 40 µM; EC50 (mSTC-1 [4]): > 40 µM; EC50 (mSTC-1 [2]): 15.2 µM and 13.5 µM
c1ccc(C2CC3(CCCCC3)c3c2[nH]c2ccccc32)cc1 (stereo not shown) [Compound 19e],0,0,78.4,109,–

Compound,activation at 2 µM (hNCI-H716 [1]; 2 μM) [%],activation at 20 µM (hNCI-H716 [1]; 20 μM) [%],activation at 2 µM (mSTC-1 [2]) [%],activation at 20 µM (mSTC-1 [2]) [%],also measured
COC(=O)c1ccc2[nH]c3c(c2c1)C(C)(C)C1C=CC3C1 (stereo not shown) [Compound 11r],–,–,–,–,Primary SP hNCI (% Stim.) (hNCI-H716 [1]; 2 μM): −1.1%; Primary SP hNCI (% Stim.) (hNCI-H716 [1]; 20 μM): 13.4%
C[C@]12c3ccccc3N[C@H]1C1CCC2C1=O (stereo partly shown) [Compound 22],-1.5,-1.3,-1.8,7.4,–
Cn1c2c(c3ccccc31)[C@@H](c1ccco1)[C@@H]1C=C[C@H]2C1 [Compound 11d],-2.5,-1,–,–,–
CC1(C)c2c(n(Cc3ccccc3)c3ccccc23)[C@H]2C=C[C@@H]1C2 [Compound 11o],-0.3,-2.1,–,–,–
CC1(C)c2c([nH]c3ccc(O)cc23)C2C=CC1C2 (stereo not shown) [Compound 11x],3.4,-0.8,–,–,EC50 (hNCI-H716 [1]): > 40 µM; EC50 (mSTC-1 [2]): > 40 µM
Cn1c2c(c3ccccc31)[C@@H](c1ccccc1)[C@@H]1C=C[C@H]2C1 [Compound 11a],-2.8,-0.5,–,–,–
O=C1OC2CCC1[C@]13CCO[C@]21Nc1ccccc13 (stereo partly shown) [Compound 28],1.2,4,-2.4,4.4,–
CC(=O)Oc1ccc(C2CC3(CCCCC3)c3c2[nH]c2ccccc32)cc1 (stereo not shown) [Compound 19i],0,23.4,13.5,104,EC50 (hNCI-H716 [1]): > 40 µM; EC50 (mSTC-1 [2]): > 40 µM
Cn1c2c(c3ccccc31)C1(CCCCC1)[C@@H]1C=C[C@H]2C1 [Compound 11j],-0.3,-3.3,–,–,–
CC1=C(C)CC2(CCCCC2)c2c(n(C)c3ccccc23)C1 [Compound 11l],-2,-3.3,–,–,–
Cn1c2c(c3ccccc31)C(C)(C)[C@@H]1C=C[C@H]2C1 [Compound 11g],-0.8,-2.7,–,–,–
CN1c2ccccc2[C@]2(C)C3CCC(C3=O)[C@H]12 (stereo partly shown) [Compound 23],6.4,-1.1,6.9,71.3,EC50 (hNCI-H716 [1]): > 40 µM; EC50 (hNCI-H716 [3]): > 40 µM; EC50 (mSTC-1 [4]): > 40 µM; EC50 (mSTC-1 [2]): 6.18 µM
COc1ccc(C2CC3(CCCC3)c3c2n(C)c2ccccc32)cc1 (stereo not shown) [Compound 19v],-2,-2.4,–,–,–
Cc1ccc(C2CC3(CCCC3)c3c2n(C)c2ccccc32)cc1 (stereo not shown) [Compound 19w],-0.8,-1.9,–,–,–
COc1ccc([C@@H]2c3c(n(C)c4ccccc34)[C@H]3C=C[C@@H]2C3)cc1 (racemic) [Compound 11b],–,–,–,–,Primary SP hNCI (% Stim.) (hNCI-H716 [1]; 2 μM): −0.5%; Primary SP hNCI (% Stim.) (hNCI-H716 [1]; 20 μM): −2.4%
CC1(C)c2c([nH]c3ccc(F)cc23)C2C=CC1C2 (stereo not shown) [Compound 11w],1.4,41.3,–,–,EC50 (hNCI-H716 [1]): 22.4 µM and 30.3 µM; EC50 (mSTC-1 [2]): 23.6 µM and 22.8 µM
CC1(C)C(=O)C[C@@]2(C)c3ccccc3N(Cc3ccccc3)[C@@]12C [Compound 30],3.1,-0.2,49.9,49.9,EC50 (hNCI-H716 [1]): > 40 µM; EC50 (hNCI-H716 [3]): > 40 µM; EC50 (mSTC-1 [4]): > 40 µM; EC50 (mSTC-1 [2]): 0.85 µM and 0.51 µM
O=C1OC2CCC1[C@]13CCN[C@]21Nc1ccccc13 (stereo partly shown) [Compound 27],1,0.4,-5.1,-3.9,–
CC[C@@H]1c2c(n(C)c3ccccc23)[C@H]2C=C[C@@H]1C2 [Compound 11f],-1.1,-2.4,–,–,–
Cc1ccc(C2CC(C)(C)c3c2[nH]c2ccccc32)cc1 (stereo not shown) [Compound 19h],0,0,93.2,107,–

# Source: patent US9598365B2, “Method for synthesizing cycloalkanyl[b]indoles, cycloalkanyl[b]benzofurans, cycloalkanyl[b]benzothiophenes, compounds and methods of use” (Trustees of Dartmouth College, priority 2012, dated 2017)
